Results: patent EP4361137A1, “PRUNE1 INHIBITORS AND THERAPEUTIC USE THEREOF” (CEINGE Biotecnologie Avanzate Franco Salvatore s.c. a r.l., priority 2022, dated 2024)

How the values were obtained:
Caspase 3 = Caspase 3 activity assay; type: cell-based, murine; settings: MATH1-Prune1/TP53-/- cells
Experimental: MATH1-Prune1/TP53-/- cells (3×10^4) were plated in 96-well plate and treated with different doses of Vincristine (i.e., 0.3 nM or 0.03 nM) alone or combined to 10 µM LEO-AA7.5(S)T. Vehicle- (0.01% DMSO) treated cells were used as negative controls. Staurosporine-treated cells (1 µM) were used as positive controls of the assays. The assay was performed by using Caspase-3 Activity Assay Kit (#5723, Cell Signaling), by following the manufacture's instruction. Briefly, after 24 hours from the treatment started, cell medium was removed and 30 ul of cell lysis buffer (PI-7018, Cell Signaling) were added. The plate was then incubated for 5 minutes on ice. Later, 25 ul of cell lysate were mixed with 200 ul substrate solution B (#11734S, Cell Signaling) in a black 96 well plate. Fluorescence was detected by using a multimode plate reader (Enspire, 2300, PerkinElmer). The positive control AMC (25 µl, #11735S, Cell Signaling) mixed with 200 ul 1X assay buffer A (#11736S, Cell Signaling) was used as positive control of fluorescence.

murine PRUNE1 = assay: qPCR of PRUNE1 mRNA in MATH1-Prune1/TP53-/- cells; type: cell-based; settings: 10 µM, 24 hours, relative to vehicle
Experimental: (§1) RNA samples were extracted using TRIzol RNA Isolation Reagent (15596026, Invitrogen), according to the manufacturer instructions. Reverse transcription was performed with 5× All-In-One RT MasterMix (g592; ABM), according to the manufacturer instructions. The reverse transcription products (cDNA) were amplified by qRT-PCR using an RT-PCR system (7900; Applied Biosystems, Foster City, CA, USA). The cDNA preparation was through the cycling method, by incubating the complete reaction mix as follows: cDNA reactions: (37 °C for 10 min and 60 °C for 15 min); Heat-inactivation: 95 °C for 3 min; Hold stage: 4 °C. The targets were detected with the SYBR green approach, using BrightGreen BlasTaq 2× PCR MasterMix (G895; ABM). Human ACTB was used as the housekeeping gene to normalize the quantification cycle (Cq) values of the other genes. These runs were performed on a PCR machine (Quantstudio5, Lifetechnologies) with the following thermal protocol: Hold stage: 50 °C for 2 min; Denaturation Step: 95 °C for 10 min; Denaturation and annealing (×45 cycles): 95 °C for 15 s and 60 °C for 60 s; Melt curve stage: 95 °C for 15 s, 60 °C for 1 min, and 95 °C for 15 s. Relative expression of the target genes was determined using the 2^-ΔΔCq method, as the fold increase compared with the controls. The data are presented as means ±SD of the 2^-ΔΔCq values (normalized to human ACTB) of three replicates.

human PRUNE1 = assay: qPCR of PRUNE1 mRNA in MATH1-Prune1/TP53-/- cells; type: cell-based; settings: 10 µM, 24 hours, relative to vehicle
Experimental: as §1

MATH1-Prune1/ TP53-/- = assay: Orthotopic implantation of MATH1-Prune1/TP53-/- cells in immunocompetent syngeneic mice, survival analysis; type: in vivo, FVB WT mice
Experimental: MATH1-Prune1/ TP53-/- were implanted into the right cerebellar hemisphere of female (n.24) immunocompetent syngeneic mice model (5 weeks old, strain: FVB WT). to establish intracerebellar MATH1-Prune1/ TP53-/- models, mice were anaesthetised with Ketamine/ Xylazine (87.5 mg/kg, 12.5 mg/kg, respectively). The mice were then placed in a stereotactic frame by hooking their incisors onto the frame hold. […] The mice were monitored daily for development of potential neurological deficits. For LEO-AA7.5(S)T in-vivo treatment, starting after 10 days from tumour implantation (i.e., once the tumours were established) the mice (grouped according to body weight values) were injected intraperitoneally with LEO-AA7.5(S)T at 6 mg/kg/day, or with water as the vehicle for the control group. mouse body weights were measured at the indicated time points. Mouse survival was closely monitored during the entire experimental period.

Compound: COc1ccc(CNc2ncnc(N3CCC[C@H](CO)C3)n2)cc1.Cl [LEO-AA7.5(S)T, (S)-(1-(4-((4-methoxybenzyl)amino)-1,3,5-triazin-2-yl)piperidin-3-yl)methanol HCl salt]
- Caspase 3 activation, combination with Vincristine (Caspase 3; 10 µM plus 0.03 nM Vincristine): promotes Caspase 3 activation
- Caspase 3 activation, single agent (Caspase 3; Vincristine 0.3 nM and 0.03 nM, LEO-AA7.5(S)T 10 µM, 24 hours): does not induce apoptotic action
- murine endogenous Prune1 mRNA (murine PRUNE1): 0.4 fold
- human endogenous Prune1 mRNA (human PRUNE1): 0.15 fold
- toxic effects (body weight) (MATH1-Prune1/ TP53-/-; 6 mg/kg/day intraperitoneally): no toxic effects
- overall survival (MATH1-Prune1/ TP53-/-; 6 mg/kg/day intraperitoneally from day 10 after implantation): improved overall survival
